Reference: patent US5635593A (priority 1995, dated 1997)
Numbered stars: 1 amine (or outer) side, 2 acyl side, 3 side chain; on linkers, the order of the positions; unused ones are H or OH. Bridge positions count the residues as written; N and C are the ends. Square brackets hold non-standard residues; d marks the D form. Peptide text beside a SMILES is read from it. I, II: the chains in the order shown. BMH = O=C1CC([*:1])C(=O)N1CCCCCCN1C(=O)CC([*:2])C1=O; Oic = O=C(O)[C@@H]1C[C@@H]2CCCC[C@@H]2N1; Hyp = O=C(O)[C@@H]1C[C@@H](O)CN1; dTic = O=C(O)[C@H]1Cc2ccccc2CN1

Key:
[1] = biological target: T1, BK2 -receptor (Rattus norvegicus, UniProt P25023); experiment: rat uterus (RU) in vitro, antagonism of BK
T1 construct: guinea-pig ileum (GPI), rat uterus (RU) and rabbit jugular vein (RJV); from tissue; host or cells: rat uterus
T1 sequence (P25023 1-396): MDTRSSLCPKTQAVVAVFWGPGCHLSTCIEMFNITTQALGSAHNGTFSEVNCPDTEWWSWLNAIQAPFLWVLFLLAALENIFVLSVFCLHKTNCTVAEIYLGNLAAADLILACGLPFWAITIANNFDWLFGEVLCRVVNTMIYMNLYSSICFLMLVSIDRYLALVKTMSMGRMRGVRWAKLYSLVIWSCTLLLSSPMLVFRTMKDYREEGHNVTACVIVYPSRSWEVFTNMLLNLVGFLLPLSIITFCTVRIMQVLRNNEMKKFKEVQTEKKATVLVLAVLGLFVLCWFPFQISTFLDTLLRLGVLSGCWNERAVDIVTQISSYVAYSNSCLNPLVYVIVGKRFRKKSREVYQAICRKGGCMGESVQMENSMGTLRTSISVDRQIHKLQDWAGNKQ
Protocol: Thus, in vitro studies were performed on standard assay systems, namely, guinea-pig ileum (GPI), rat uterus (RU) and rabbit jugular vein (RJV). […] The potency of each compound was assessed as a pA2 value according to the method of Arunlakshana & Schild, Br. J. Pharmacol. Chemother., 14:48-58 (1959). The pA2 can be defined as the negative logarithm of the molar concentration of the antagonist in the presence of which the potency of the agonist is reduced two-fold, i.e., twice the amount of agonist is required to produce a given response in the presence of, than in the absence of, the antagonist. A high potency of antagonism is indicated by a high pA2 value. i.e., a low concentration of antagonist is effective.
The percentage recovery (% Rec) was also determined for compounds with respect to each assay.
With respect to duration of activity, it is noted that after exposure to the highest concentration of antagonist, each tissue was washed extensively and then assessed for recovery from the antagonist effect.
Potency in the rat uterus assay was assessed as described above and pA2 values determined.

[2] = biological target: T2, BK2 receptor (Oryctolagus cuniculus, UniProt Q28642); experiment: blood pressure response to BK2 agonist in LPS-pretreated rabbits; type: in vivo, rabbit; parameters: key to observed antagonist activity BK2, 1 / observed antagonist activity BK2, 3 / observed antagonist activity BK2, 10: +: complete blockade of the blood pressure response to the appropriate agonist; ±: partial blockade; -: no observable effect at the dose indicated; conditions: for observed antagonist activity BK2, 1: 1 μg kg^-1 min^-1; for observed antagonist activity BK2, 1 / observed antagonist activity BK2, 3 / observed antagonist activity BK2, 10: rabbits given LPS (10 μg) 20 hours before; for observed antagonist activity BK2, 3: 3 μg kg^-1 min^-1; for observed antagonist activity BK2, 10: 10 μg kg^-1 min^-1
T2 construct: from tissue; host or cells: whole animal (rabbit, LPS-pretreated), blood pressure response
T2 sequence (Q28642 1-367): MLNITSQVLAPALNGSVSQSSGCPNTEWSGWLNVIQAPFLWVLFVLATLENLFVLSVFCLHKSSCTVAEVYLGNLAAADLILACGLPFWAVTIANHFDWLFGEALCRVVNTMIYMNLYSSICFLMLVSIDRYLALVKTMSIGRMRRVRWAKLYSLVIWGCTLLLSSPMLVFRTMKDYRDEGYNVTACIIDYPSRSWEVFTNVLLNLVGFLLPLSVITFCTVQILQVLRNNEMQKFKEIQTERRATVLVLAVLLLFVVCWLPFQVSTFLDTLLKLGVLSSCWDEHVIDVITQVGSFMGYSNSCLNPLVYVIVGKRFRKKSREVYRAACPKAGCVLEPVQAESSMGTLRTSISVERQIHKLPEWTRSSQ
From the text: (§1) That heterodimeric constructs block the activities attributable to two different receptor populations simultaneously when administered to an intact animal has been known using a standard assay of BK2 and BK1 receptor activity (see, deBlois, Bouthillier, and Marceau, Brit. J. Pharm., 103, 1057-1066, 1991). In normal rabbits, no changes in systemic arterial blood pressure can be detected in response to challenges with BK1 receptor agonists. There is, however, a predictable and reproducible response to BK2 agonists constituatively present. After stimulation with LPS BK1 receptor activity will develop over time such that profound responses to doses of BK1 agonists that were previously inconsequential in nature are observed after a 3-4 hour period. Responses to BK2 agonists are unchanged in these animals. At this point, one can test directly the ability to block both BK1 and BK2 mediated reductions in systemic blood pressure simultaneously with a heterodimeric antagonist.
(§2) FIGS. 8a, b and c comprise actual blood pressure traces from a series of experiments designed to illustrate the ability of a representative heterodimer (CP-0364) to block both BK1 - and BK2 - mediated hypotensive responses simultaneously.
(§3) The expected antagonist activity is based on the data summarized in Tables K and L. The in vivo experimental data reported are qualitative measurements of antagonist activity at three different doses (1, 3 and 10 μg kg^-1 min^-1) in rabbits given a sub-lethal dose of LPS (10 μg), 20 hours before initiation of the experiment.

[3] = biological target: T3, BK1 receptor (Oryctolagus cuniculus, UniProt P48748); experiment: blood pressure response to BK1 agonist in LPS-pretreated rabbits; type: in vivo, rabbit; parameters: from tissue; host or cells: whole animal (rabbit, LPS-pretreated), blood pressure response; key to observed antagonist activity BK1, 1 / observed antagonist activity BK1, 3 / observed antagonist activity BK1, 10: +: complete blockade of the blood pressure response to the appropriate agonist; ±: partial blockade; -: no observable effect at the dose indicated; conditions: for observed antagonist activity BK1, 1: 1 μg kg^-1 min^-1; for observed antagonist activity BK1, 1 / observed antagonist activity BK1, 3 / observed antagonist activity BK1, 10: rabbits given LPS (10 μg) 20 hours before; for observed antagonist activity BK1, 3: 3 μg kg^-1 min^-1; for observed antagonist activity BK1, 10: 10 μg kg^-1 min^-1
T3 sequence (P48748 1-352): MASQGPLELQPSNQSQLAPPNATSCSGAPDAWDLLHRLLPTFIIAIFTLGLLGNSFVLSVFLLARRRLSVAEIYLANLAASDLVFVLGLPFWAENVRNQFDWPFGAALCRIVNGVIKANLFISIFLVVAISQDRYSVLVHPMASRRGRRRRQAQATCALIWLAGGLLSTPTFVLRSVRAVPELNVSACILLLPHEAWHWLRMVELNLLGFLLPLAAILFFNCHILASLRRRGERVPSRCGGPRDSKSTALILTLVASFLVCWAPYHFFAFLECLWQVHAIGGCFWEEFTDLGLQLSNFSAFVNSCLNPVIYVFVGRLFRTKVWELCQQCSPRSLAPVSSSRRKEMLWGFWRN
From the text: as §1, §2, §3

[4] = rabbits after endotoxin pre-treatment, agonist i.v. bolus

Compound	observed antagonist activity BK2, 1 [2]	observed antagonist activity BK2, 3 [2]	observed antagonist activity BK2, 10 [2]	observed antagonist activity BK1, 1 [3]	observed antagonist activity BK1, 3 [3]	observed antagonist activity BK1, 10 [3]	other results
CC(C)C[C@H](NC(=O)[C@@H](Cc1ccccc1)NC(=O)[C@H](CO)NC(=O)[C@H](CSC1CC(=O)N(CCCCCCN2C(=O)CC(SC[C@H](NC(=O)CNC(=O)[C@@H]3C[C@@H](O)CN3C(=O)[C@@H]3CCCN3C(=O)[C@H](CCCNC(=N)N)NC(=O)[C@H](N)CCCNC(=N)N)C(=O)N[C@@H](CO)C(=O)N[C@H](Cc3ccccc3)C(=O)N[C@@H](CC(C)C)C(=O)N[C@@H](CCCNC(=N)N)C(=O)O)C2=O)C1=O)NC(=O)CNC(=O)[C@@H]1C[C@@H](O)CN1C(=O)[C@@H]1CCCN1C(=O)[C@H](CCCNC(=N)N)NC(=O)[C@H](N)CCCNC(=N)N)C(=O)N[C@@H](CCCNC(=N)N)C(=O)O (some centres unmarked) [CP-0156] (HELM PEPTIDE1{[dR].R.P.[Hyp].G.C.S.[dF].L.R}|PEPTIDE2{[dR].R.P.[Hyp].G.C.S.[dF].L.R}|CHEM1{[O=C1CC([*:1])C(=O)N1CCCCCCN1C(=O)CC([*:2])C1=O]}$PEPTIDE1,CHEM1,6:R3-1:R1|PEPTIDE2,CHEM1,6:R3-1:R2$$$V2.0)							% REC rat uterus ([1]; percentage recovery after washing): 75%
CC(C)C[C@H](NC(=O)[C@@H](Cc1ccccc1)NC(=O)[C@H](CSC1CC(=O)N(CCN2C(=O)CC(SC[C@H](NC(=O)[C@H](Cc3ccccc3)NC(=O)CNC(=O)[C@@H]3C[C@@H](O)CN3C(=O)[C@@H]3CCCN3C(=O)[C@H](CCCNC(=N)N)NC(=O)[C@H](N)CCCNC(=N)N)C(=O)N[C@H](Cc3ccccc3)C(=O)N[C@@H](CC(C)C)C(=O)N[C@@H](CCCNC(=N)N)C(=O)O)C2=O)C1=O)NC(=O)[C@H](Cc1ccccc1)NC(=O)CNC(=O)[C@@H]1C[C@@H](O)CN1C(=O)[C@@H]1CCCN1C(=O)[C@H](CCCNC(=N)N)NC(=O)[C@H](N)CCCNC(=N)N)C(=O)N[C@@H](CCCNC(=N)N)C(=O)O (some centres unmarked) [CP-0162] (HELM PEPTIDE1{[dR].R.P.[Hyp].G.F.C.[dF].L.R}|PEPTIDE2{[dR].R.P.[Hyp].G.F.C.[dF].L.R}|CHEM1{[O=C1CC([*:1])C(=O)N1CCN1C(=O)CC([*:2])C1=O]}$PEPTIDE1,CHEM1,7:R3-1:R1|PEPTIDE2,CHEM1,7:R3-1:R2$$$V2.0)							Kb ([1]; against BK, read-out: pA2 rat uterus (BK2) (converted)): 3.98 nM
CC(C)C[C@H](NC(=O)[C@@H](Cc1ccccc1)NC(=O)[C@H](CSC1CC(=O)N(CCCCN2C(=O)CC(SC[C@H](NC(=O)[C@H](Cc3ccccc3)NC(=O)CNC(=O)[C@@H]3C[C@@H](O)CN3C(=O)[C@@H]3CCCN3C(=O)[C@H](CCCNC(=N)N)NC(=O)[C@H](N)CCCNC(=N)N)C(=O)N[C@H](Cc3ccccc3)C(=O)N[C@@H](CC(C)C)C(=O)N[C@@H](CCCNC(=N)N)C(=O)O)C2=O)C1=O)NC(=O)[C@H](Cc1ccccc1)NC(=O)CNC(=O)[C@@H]1C[C@@H](O)CN1C(=O)[C@@H]1CCCN1C(=O)[C@H](CCCNC(=N)N)NC(=O)[C@H](N)CCCNC(=N)N)C(=O)N[C@@H](CCCNC(=N)N)C(=O)O (some centres unmarked) [CP-0209] (HELM PEPTIDE1{[dR].R.P.[Hyp].G.F.C.[dF].L.R}|PEPTIDE2{[dR].R.P.[Hyp].G.F.C.[dF].L.R}|CHEM1{[O=C1CC([*:1])C(=O)N1CCCCN1C(=O)CC([*:2])C1=O]}$PEPTIDE1,CHEM1,7:R3-1:R1|PEPTIDE2,CHEM1,7:R3-1:R2$$$V2.0)							pA2 rat uterus (BK2) ([1]; against BK): 8.2 ± 0.2
CC(C)C[C@H](NC(=O)[C@@H]1CCCN1C(=O)[C@H](CO)NC(=O)[C@H](Cc1ccccc1)NC(=O)CNC(=O)[C@@H]1CCCN1C(=O)[C@@H]1CCCN1C(=O)[C@H](CCCNC(=N)N)NC(=O)[C@@H](N)CCCCN)C(=O)O [CP-0298, des ARG^9-[LYS^0, LEU^8]-BK, reference compound]	-	-	-	+	+	+	
CC(C)C[C@H](NC(=O)[C@@H]1CCCN1C(=O)[C@H](CO)NC(=O)[C@H](Cc1ccccc1)NC(=O)CNC(=O)[C@@H]1C[C@@H](O)CN1C(=O)[C@@H]1CCCN1C(=O)[C@H](CSC1CC(=O)N(CCCCCCN2C(=O)CC(SC[C@H](NC(=O)[C@H](Cc3ccccc3)NC(=O)CNC(=O)[C@@H]3C[C@@H](O)CN3C(=O)[C@@H]3CCCN3C(=O)[C@H](CCCNC(=N)N)NC(=O)[C@H](N)CCCNC(=N)N)C(=O)N[C@H](Cc3ccccc3)C(=O)N[C@@H](CC(C)C)C(=O)N[C@@H](CCCNC(=N)N)C(=O)O)C2=O)C1=O)NC(=O)[C@H](N)CCCNC(=N)N)C(=O)O (some centres unmarked) [CP-0364] (HELM PEPTIDE1{[dR].R.P.[Hyp].G.F.C.[dF].L.R}|PEPTIDE2{[dR].C.P.[Hyp].G.F.S.P.L}|CHEM1{[O=C1CC([*:1])C(=O)N1CCCCCCN1C(=O)CC([*:2])C1=O]}$PEPTIDE1,CHEM1,7:R3-1:R1|PEPTIDE2,CHEM1,2:R3-1:R2$$$V2.0; N-terminus and C-terminus assumed)	+	+	+	+	+	+	block of BK2-mediated hypotensive response (FIG. 8) [2, 4]: capable of blocking the response profile to both agonists simultaneously; block of BK1-mediated hypotensive response (FIG. 8) [3, 4]: capable of blocking the response profile to both agonists simultaneously
N=C(N)NCCC[C@@H](N)C(=O)N[C@@H](CCCNC(=N)N)C(=O)N1CCC[C@H]1C(=O)N1C[C@H](O)C[C@H]1C(=O)NCC(=O)N[C@@H](Cc1ccccc1)C(=O)N[C@@H](CSC1CC(=O)N(CCCCCCN2C(=O)CC(SC[C@H](NC(=O)[C@H](N)CCCNC(=N)N)C(=O)N3CCC[C@H]3C(=O)N3C[C@H](O)C[C@H]3C(=O)NCC(=O)N[C@@H](Cc3ccccc3)C(=O)N[C@@H](CO)C(=O)N3Cc4ccccc4C[C@@H]3C(=O)N3[C@H](C(=O)O)C[C@@H]4CCCC[C@@H]43)C2=O)C1=O)C(=O)N1Cc2ccccc2C[C@@H]1C(=O)N1[C@H](C(=O)N[C@@H](CCCNC(=N)N)C(=O)O)C[C@@H]2CCCC[C@@H]21 (some centres unmarked) [CP-0365] (I: H-[dR]RP[Hyp]GFC[dTic][Oic]R-OH / II: H-[dR]CP[Hyp]GFS[dTic][Oic]-OH; linker I:7-II:2 via BMH; N-terminus and C-terminus assumed)	-	+	+	-	+	+	
